Columns and labels:
[1] = Size and polydispersity index (PDI) of the lipid nanoparticle by dynamic light scattering; format: physicochemical; conditions: LNP encapsulating eGFP mRNA, ionizable lipid/DOPE/cholesterol/DMG-PEG2000 50/10/48.25/1.25 mol%, N/P 12; for Particle size: in nm (unit assumed)
Procedure, shortened: (§1)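 LNPs were made by microfluidic mixing of ionizable lipid/DOPE/cholesterol/DMG-PEG2000 (50/10/48.25/1.25 mol%) in ethanol with eGFP mRNA in 20 mM citrate pH 6.1, N/P 12, then ultrafiltered into DPBS and 0.2 µm filtered. Size and PDI by DLS at 173° backscatter; encapsulation by Ribogreen.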

[2] = In vitro transfection of cells with eGFP-mRNA lipid nanoparticle (LNP preparation), fluorescence imaging and flow cytometry; format: cell-based, mouse; conditions: mouse, dc2.4 cells, 200 ng of mRNA per well, after 24 hours; read-out: Cell viability, %
Procedure, shortened: (§2)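 Mouse bone marrow-derived DC2.4 dendritic cells seeded at 2 × 10^5 cells/well in DMEM with 10% FBS, transfected with eGFP-mRNA LNPs the next day at 37 °C, 5% CO2. After 24 hours, viability, eGFP-positive rate and mean fluorescence intensity read by fluorescence imaging and flow cytometry.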

[3] = test system: DC2.4 cells; assay: as above; format: cell-based, mouse; conditions: eGFP positivity rate, DC2.4 cells, 200 ng of mRNA per well, after 24 hours
Procedure, shortened: as §2

[4] = Encapsulation efficiency of the lipid nanoparticle (eGFP mRNA) by Ribogreen method; format: physicochemical; conditions: LNP encapsulating eGFP mRNA, ionizable lipid/DOPE/cholesterol/DMG-PEG2000 50/10/48.25/1.25 mol%, N/P 12
Procedure, shortened: as §1

| Structure (SMILES) | PDI [1] | Particle size [1] | Encapsulation rate, % [4] | viability at 24 h [2] | Positive rate, % [3] |
| --- | --- | --- | --- | --- | --- |
| CCCCCCCCCCCCCOC(=O)CCCN(CCCCO)CCCN(CCCC(=O)OCCCCCCCCCCCCC)CCCC(=O)OCCCCCCCCCCCCC [Example 65, Ditridecyl 4,4'-((3-((4-hydroxybutyl)(4-oxo-4-(tridecyloxy)butyl)amino)propyl)azanediyl)dibutanoate] | 0.20 | 90.10 | 96.31% | 60.3% | 96.80% |
| CCCCCCCCCCCOC(=O)CCN(CCO)CCCN(CCC(=O)OCCCCCCCCCCC)CCC(=O)OCCCCCCCCCCC [Example 67, Diundecyl 3,3'-((3-((2-hydroxyethyl)(3-oxo-3-(undecyloxy)propyl)amino)propyl)azanediyl)dipropionate] | 0.20 | 86.08 | 66.08% | 95.8% | 98.32% |
| CCCCCCCCCCCCCOC(=O)CCN(CCCO)CCCN(CCC(=O)OCCCCCCCCCCCCC)CCC(=O)OCCCCCCCCCCCCC [Example 71, Ditridecyl 3,3'-((3-((3-hydroxypropyl)(3-oxo-3-(tridecyloxy)propyl)amino)propyl)azanediyl)dipropionate] | 85.88 | 98.30 | 98.30% | 97.3% | 98.99% |
| CCCCCCCCCCCCCOC(=O)CCN(CCCCO)CCCN(CCC(=O)OCCCCCCCCCCCCC)CCC(=O)OCCCCCCCCCCCCC [Example 72, Ditridecyl 3,3'-((3-((4-hydroxybutyl)(3-oxo-3-(tridecyloxy)propyl)amino)propyl)azanediyl)dipropionate] | – | 99.70 | 99.70% | 84% | 81.19% |
| CCCCCCCCCCCOC(=O)CN(CCO)CCCN(CC(=O)OCCCCCCCCCCC)CC(=O)OCCCCCCCCCCC [Example 73, Diundecyl 2,2'-((3-((2-hydroxyethyl)(2-oxo-2-(undecyloxy)ethyl)amino)propyl)azanediyl)diacetate] | – | 85.54 | 85.54% | 84.1% | 97.94% |
| CCCCCCCCCCCCCOC(=O)CN(CCCCO)CCCN(CC(=O)OCCCCCCCCCCCCC)CC(=O)OCCCCCCCCCCCCC [Example 78, Ditridecyl 2,2'-((3-((4-hydroxybutyl)(2-oxo-2-(tridecyloxy)ethyl)amino)propyl)azanediyl)diacetate] | 53.66 | 99.86 | 99.86% | 91.7% | 81.35% |
| CCCCC/C=C\C/C=C\CCCCCCCCOC(=O)CCCN(CCO)CCCN(CCCC(=O)OCCCCCCCC/C=C\C/C=C\CCCCC)CCCC(=O)OCCCCCCCC/C=C\C/C=C\CCCCC [Example 80, Di((9Z,12Z)-octadeca-9,12-dien-1-yl)4,4'-((3-((2-hydroxyethyl)(4-(((9Z,12Z)-octadeca-9,12-dien-1-yl)oxo)-4-oxobutyl)amino)propyl)azanediyl)dibutanoate] | – | 99.14 | 99.14% | 87.3% | 94.60% |
| CCCCCCCCCCCOC(=O)CCCN(CCCO)CCCCCN(CCCC(=O)OCCCCCCCCCCC)CCCC(=O)OCCCCCCCCCCC [Example 83] | 73.54 | 99.79 | 99.79% | 84.2% | 97.05% |
| CCCCCCCCCCOC(=O)CCCN(CCCO)CCCCN(CCCC(=O)OCCCCCCCCCC)CCCC(=O)OCCCCCCCCCC [Example 86] | 0.13 | 88.62 | 94.50% | 93% | 94.18% |
| CCCCCCCCCCCOC(=O)CCCN(CCO)CCCCN(CCCC(=O)OCCCCCCCCCCC)CCCC(=O)OCCCCCCCCCCC [Example 87] | 0.12 | 72.55 | 92.26% | 97.5% | 96.15% |

Further lines, with some results ahead:

| PDI [1] | Particle size [1] | Encapsulation rate, % [4] | Structure (SMILES) | viability at 24 h [2] | Positive rate, % [3] |
| --- | --- | --- | --- | --- | --- |
| 0.16 | 99.80 | 99.32% | CCCCCCCCCCCCCOC(=O)CCCN(CCO)CCCN(CCCC(=O)OCCCCCCCCCCCCC)CCCC(=O)OCCCCCCCCCCCCC [Example 62, Ditridecyl 4,4'-((3-((2-hydroxyethyl)(4-oxo-4-(tridecyloxy)butyl)amino)propyl)azanediyl)dibutanoate] | 59% | 96.24% |
| 0.15 | 84.74 | 97.68% | CCCCCCCCCCCCCOC(=O)CCCN(CCCO)CCCN(CCCC(=O)OCCCCCCCCCCCCC)CCCC(=O)OCCCCCCCCCCCCC [Example 63, Ditridecyl 4,4'-((3-((3-hydroxypropyl)(4-oxo-4-(tridecyloxy)butyl)amino)propyl)azanediyl)dibutanoate] | 63.4% | 92.85% |
| 0.19 | 90.58 | 98.93% | CCCCCCCCCCCOC(=O)CCCN(CCCO)CCCN(CCCC(=O)OCCCCCCCCCCC)CCCC(=O)OCCCCCCCCCCC [Example 64, Diundecyl 4,4'-((3-((3-hydroxypropyl)(4-oxo-4-(undecyloxy)butyl)amino)propyl)azanediyl)dibutanoate] | 64.6% | 99.18% |
| 0.14 | – | 94.12% | CCCCCCCCCCCOC(=O)CCCN(CCCCO)CCCN(CCCC(=O)OCCCCCCCCCCC)CCCC(=O)OCCCCCCCCCCC [Example 66, Diundecyl 4,4'-((3-((4-hydroxybutyl)(4-oxo-4-(undecyloxy)butyl)amino)propyl)azanediyl)dibutanoate] | 76.7% | 98.63% |
| 0.18 | – | 95.99% | CCCCCCCCCCCOC(=O)CCN(CCCO)CCCN(CCC(=O)OCCCCCCCCCCC)CCC(=O)OCCCCCCCCCCC [Example 68, Diundecyl 3,3'-((3-((3-hydroxypropyl)(3-oxo-3-(undecyloxy)propyl)amino)propyl)azanediyl)dipropionate] | 94.9% | 98.77% |
| 0.13 | – | 85.47% | CCCCCCCCCCCOC(=O)CCN(CCCCO)CCCN(CCC(=O)OCCCCCCCCCCC)CCC(=O)OCCCCCCCCCCC [Example 69, Diundecyl 3,3'-((3-((4-hydroxybutyl)(3-oxo-3-(undecyloxy)propyl)amino)propyl)azanediyl)dipropionate] | 91.9% | 97.10% |
| 0.11 | – | 97.26% | CCCCCCCCCCCCCOC(=O)CCN(CCO)CCCN(CCC(=O)OCCCCCCCCCCCCC)CCC(=O)OCCCCCCCCCCCCC [Example 70, Ditridecyl 3,3'-((3-((2-hydroxyethyl)(3-oxo-3-(tridecyloxy)propyl)amino)propyl)azanediyl)dipropionate] | 91.2% | 99.07% |
| – | 96.91 | 96.91% | CCCCCCCCCCCOC(=O)CN(CCCO)CCCN(CC(=O)OCCCCCCCCCCC)CC(=O)OCCCCCCCCCCC [Example 74, Diundecyl 2,2'-((3-((3-hydroxypropyl)(2-oxo-2-(undecyloxy)ethyl)amino)propyl)azanediyl)diacetate] | 71% | 91.81% |
| 60.95 | 99.22 | 99.22% | CCCCCCCCCCCOC(=O)CN(CCCCO)CCCN(CC(=O)OCCCCCCCCCCC)CC(=O)OCCCCCCCCCCC [Example 75, Diundecyl 2,2'-((3-((4-hydroxybutyl)(2-oxo-2-(undecyloxy)ethyl)amino)propyl)azanediyl)diacetate] | 90.3% | 91.29% |
| – | 74.60 | 96.23% | CCCCCCCCCCCCCOC(=O)CN(CCO)CCCN(CC(=O)OCCCCCCCCCCCCC)CC(=O)OCCCCCCCCCCCCC [Example 76, Ditridecyl 2,2'-((3-((2-hydroxyethyl)(2-oxo-2-(tridecyloxy)ethyl)amino)propyl)azanediyl)diacetate] | 95% | 98.01% |
| 70.33 | 99.78 | 99.78% | CCCCCCCCCCCCCOC(=O)CN(CCCO)CCCN(CC(=O)OCCCCCCCCCCCCC)CC(=O)OCCCCCCCCCCCCC [Example 77, Ditridecyl 2,2'-((3-((3-hydroxypropyl)(2-oxo-2-(tridecyloxy)ethyl)amino)propyl)azanediyl)diacetate] | 83.9% | 90.71% |
| 92.91 | 99.74 | 99.74% | CCCCCCCCCCCOC(=O)CCCN(CCCO)CCCCN(CCCC(=O)OCCCCCCCCCCC)CCCC(=O)OCCCCCCCCCCC [Example 82, Diundecyl 4,4'-((4-((3-hydroxypropyl)(4-oxo-4-(undecyloxy)butyl)amino)butyl)azanediyl)dibutanoate] | 76% | 96.72% |

Reference: patent publication EP4678629A1, “IONIZABLE LIPID MOLECULE, PREPARATION METHOD THEREFOR AND USE THEREOF” (Maxirna (Shanghai) Pharmaceutical Co., Ltd., priority 2023, dated 2024)
